Measurements from ChEMBL document CHEMBL1201862, “PubChem BioAssay data set” (2004).
Counter-ions that a name gives are not always drawn.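 These data come from cells grown in 96-well plates and exposed to compound for 48 hours at five concentrations. Abbreviation: GI50, concentration required for 50% inhibition of growth.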 Activity calls are given as the source filed them. Rule as the data show it: active = GI50 up to about 1.1 µM and inactive = higher.

How the values were obtained:
Test in all cases: NCI tumour cell line growth inhibition, 48 h
[1] = test system: HOP-18
[2] = test system: DLD-1
[3] = test system: M19-MEL
[4] = test system: SNB-78
[5] = test system: LXFL 529
[6] = test system: DMS-114
[7] = test system: KM-20L2
[8] = test system: XF498
[9] = test system: RXF 631

Row | Compound | GI50 [1] | GI50 [2] | GI50 [3] | GI50 [4] | GI50 [5] | GI50 [6] | GI50 [7] | GI50 [8] | GI50 [9]
1 | NC(=O)N/N=C(\Cc1nc2ccc(C(=O)c3ccccc3)cc2nc1O)C(=O)Nc1ccc(Br)cc1 | > 100 µM (inactive) | > 100 µM (inactive) | > 100 µM (inactive) | > 100 µM (inactive) | > 100 µM (inactive) | > 100 µM (inactive) | > 100 µM (inactive) | > 100 µM (inactive) | –
2 | O=C(c1ccc(F)cc1)c1cccc(C(=O)c2ccc(F)cc2)n1 | 53.2 µM (inactive) | > 100 µM (inactive) | > 72.3 µM (inactive) | 17.7 µM (inactive) | > 79.1 µM (inactive) | 23.9 µM (inactive) | > 100 µM (inactive) | 20.9 µM (inactive) | –
3 | O=C(O)c1c[nH]cc1C(=O)O | – | > 100 µM (inactive) | > 100 µM (inactive) | > 100 µM (inactive) | > 100 µM (inactive) | > 100 µM (inactive) | > 100 µM (inactive) | > 100 µM (inactive) | –
4 | Cc1n(CC(C)C)c2c([n+]1C)C(=O)c1ccccc1C2=O | 0.565 µM (active) | 0.0813 µM (active) | 0.0719 µM (active) | 0.403 µM (active) | < 0.0375 µM (active) | < 0.0161 µM (active) | 0.0383 µM (active) | 0.252 µM (active) | –
6 | Cc1c(-c2coc(-c3ccccc3)n2)c(=O)n(-c2ccccc2)n1C | – | > 100 µM (inactive) | 56.2 µM (inactive) | > 100 µM (inactive) | 58.1 µM (inactive) | 36.6 µM (inactive) | > 100 µM (inactive) | 23 µM (inactive) | –
7 | CCOC(=O)c1cc2c(nc1N)-c1ncccc1CC2 | > 100 µM (inactive) | 52.7 µM (inactive) | 89.5 µM (inactive) | > 100 µM (inactive) | 50.7 µM (inactive) | 8.95 µM (inactive) | 37.2 µM (inactive) | – | > 100 µM (inactive)
8 | Cc1ccc(C(=O)N2CCCCC2)cc1/N=N/N(C)C | – | > 100 µM (inactive) | > 100 µM (inactive) | – | > 100 µM (inactive) | > 100 µM (inactive) | – | – | –
9 | Cc1cc2c(=O)n(-c3ccc(F)cc3)c(C)nc2c(C(=O)O)c1C | > 100 µM (inactive) | > 100 µM (inactive) | > 100 µM (inactive) | > 100 µM (inactive) | > 100 µM (inactive) | > 100 µM (inactive) | > 100 µM (inactive) | – | –
10 | CCc1cccc(C)c1NC(=O)CCc1nnc(S)[nH]1 | > 100 µM (inactive) | > 100 µM (inactive) | > 100 µM (inactive) | > 100 µM (inactive) | > 100 µM (inactive) | > 100 µM (inactive) | > 100 µM (inactive) | > 100 µM (inactive) | –
11 | Cc1nc(-n2nc(-c3ccccc3)cc2-c2ccccc2)sc1C(=O)/C=C/c1ccccc1 | > 100 µM (inactive) | > 100 µM (inactive) | > 100 µM (inactive) | > 100 µM (inactive) | – | – | > 100 µM (inactive) | – | > 100 µM (inactive)
12 | O=C(Nc1ccc([N+](=O)[O-])cc1)C1C(=O)C(=O)N(c2ccc([N+](=O)[O-])cc2)C1=O (centres undefined) | > 100 µM (inactive) | > 100 µM (inactive) | – | > 100 µM (inactive) | 17.7 µM (inactive) | 17.1 µM (inactive) | 97.3 µM (inactive) | – | > 100 µM (inactive)
13 | CCCCNC1=C(C(=O)OCC)/C(=N/NC(=O)c2ccccc2O)CO1 | 62.2 µM (inactive) | 18.2 µM (inactive) | > 100 µM (inactive) | 6.93 µM (inactive) | 38 µM (inactive) | 36.7 µM (inactive) | > 100 µM (inactive) | > 100 µM (inactive) | –
14 | CCOP(=O)(C/C(O)=C1\C(=O)C(CCCCNC(=O)OC(C)(C)C)N(Cc2ccccc2)C1=O)OCC (centres undefined) | 80.5 µM (inactive) | > 100 µM (inactive) | > 100 µM (inactive) | – | > 100 µM (inactive) | > 100 µM (inactive) | > 100 µM (inactive) | – | –
15 | COC(=O)C[C@](O)(CCCC(C)(C)O)C(=O)O[C@@H]1C(OC)=C[C@]23CCCN2CCc2cc4c(cc2[C@H]13)OCO4 [OMACETAXINE MEPESUCCINATE] | 0.06 µM (active) | 0.0231 µM (active) | 0.0194 µM (active) | 0.0682 µM (active) | – | 0.0047 µM (active) | 0.0192 µM (active) | 0.00914 µM (active) | –
16 | O=C1C(Br)=CC2(C=C1Br)CCNC1=C2C2=NCCc3c[nH]c(c32)C1=O | 1.98 µM (inactive) | 0.0182 µM (active) | 0.0275 µM (active) | 0.2 µM (active) | – | 0.0401 µM (active) | 0.084 µM (active) | 0.188 µM (active) | –
17 | CC1CC(=O)CC[C@@H]1OCc1ccccc1 (some centres undefined) | > 100 µM (inactive) | > 100 µM (inactive) | > 100 µM (inactive) | > 100 µM (inactive) | – | 94.2 µM (inactive) | > 100 µM (inactive) | > 100 µM (inactive) | –
18 | C/C(=N\NS(=O)(=O)c1ccc(C)cc1)C(CN(C)C)C(c1ccccc1)c1c(O)c2ccccc2oc1=O (centres undefined) | > 100 µM (inactive) | > 100 µM (inactive) | > 100 µM (inactive) | > 100 µM (inactive) | > 100 µM (inactive) | – | > 100 µM (inactive) | > 100 µM (inactive) | > 100 µM (inactive)
19 | CC(=O)N(C)c1ccc(Nc2cc(C)nc3ccc4nc[nH]c4c23)cc1 [ACODAZOLE HYDROCHLORIDE] | 12.4 µM (inactive) | 19.4 µM (inactive) | 8.97 µM (inactive) | 14.4 µM (inactive) | – | 7.08 µM (inactive) | 11.9 µM (inactive) | 2.29 µM (inactive) | –
20 | CC1CCC(=O)NCCCCC(=O)N1 (centres undefined) | – | > 100 µM (inactive) | > 100 µM (inactive) | > 100 µM (inactive) | > 100 µM (inactive) | > 100 µM (inactive) | > 100 µM (inactive) | – | –
21 | NNC(=O)C(=O)N/N=C(\CCCC(=O)Nc1ccc(Cl)cc1)CC(=O)c1ccc(F)cc1 | 52.8 µM (inactive) | > 100 µM (inactive) | 53.3 µM (inactive) | > 100 µM (inactive) | 67.1 µM (inactive) | > 100 µM (inactive) | 7.31 µM (inactive) | > 100 µM (inactive) | > 100 µM (inactive)
22 | CN1CCCNCCN(CCc2ccccn2)CCCN(C)CC1 | > 100 µM (inactive) | > 88.1 µM (inactive) | > 59.4 µM (inactive) | > 100 µM (inactive) | > 75.3 µM (inactive) | > 42.6 µM (inactive) | > 100 µM (inactive) | > 100 µM (inactive) | > 100 µM (inactive)
23 | CCN(CCCl)CCNc1c2ccccc2nc2ccc(OC)cc12 | 2.7 µM (inactive) | 0.46 µM (active) | 0.703 µM (active) | 0.891 µM (active) | 0.237 µM (active) | 0.675 µM (active) | 0.448 µM (active) | 0.891 µM (active) | 0.425 µM (active)
24 | CC(C)c1cccc(C(C)C)c1NC(=O)C(=O)C(C(=O)c1ccccc1-c1ccccc1)C1OC(=O)c2ccccc21 (centres undefined) | – | – | 17.1 µM (inactive) | 21.9 µM (inactive) | 17.7 µM (inactive) | 17.7 µM (inactive) | 21.5 µM (inactive) | 13.3 µM (inactive) | –
25 | COC(=O)CCC(=O)Nc1cc(C)ccc1C | > 100 µM (inactive) | > 100 µM (inactive) | > 100 µM (inactive) | > 100 µM (inactive) | > 100 µM (inactive) | > 100 µM (inactive) | – | > 100 µM (inactive) | > 100 µM (inactive)
26 | CC(=O)CCCCCCCCCCCC[C@@H]1CC[C@H](C)[C@H](O)N1 | > 100 µM (inactive) | > 100 µM (inactive) | 95.5 µM (inactive) | > 100 µM (inactive) | > 100 µM (inactive) | > 100 µM (inactive) | 65.2 µM (inactive) | > 100 µM (inactive) | –
27 | OC[C@H]1O[C@@H](n2cnc3c(S)ncnc32)[C@H](O)[C@@H]1O [THIOINOSINE] | 2070 µM (inactive) | – | > 2500 µM (inactive) | > 2500 µM (inactive) | – | 1830 µM (inactive) | > 2500 µM (inactive) | > 1260 µM (inactive) | –
28 | COc1cccc(NC(=S)Nn2c(C)nc3ccccc3c2=O)c1 | 83.6 µM (inactive) | > 100 µM (inactive) | > 100 µM (inactive) | – | > 100 µM (inactive) | > 100 µM (inactive) | – | – | –
29 | Oc1ccc(Cn2c(-c3ccc(O)cc3)nc3ccccc32)cc1 | – | > 100 µM (inactive) | > 100 µM (inactive) | – | > 100 µM (inactive) | > 100 µM (inactive) | > 100 µM (inactive) | > 100 µM (inactive) | > 100 µM (inactive)
30 | CCN(CC)CCNC(=O)c1cccc2cc3ccccc3nc12 | 15.8 µM (inactive) | 3.57 µM (inactive) | 4.89 µM (inactive) | 7.69 µM (inactive) | – | 5.89 µM (inactive) | – | – | 4.6 µM (inactive)
